Experimental data as given in US20110201623A1, “Crystalline Form Of A Cyclopropyl Benzamide Derivative” (priority 2010, published 2011).

Tests used:
[1] = target: human H3 receptor (445 aa) (Homo sapiens, UniProt Q9Y5N1); assay: Human histamine H3 binding assay with the agonist radioligand [3H]-N-α-methylhistamine; settings: membranes, SPA, 1.5 nmol/L radioligand, pH 7.4, room temperature; read-out: IC50 equivalent of pIC50, inhibition of specific binding of [3H]-N-α-Methyl Histamine to the human H3 receptor (converted)
Sequence of human H3 receptor (445 aa) (Q9Y5N1 whole entry): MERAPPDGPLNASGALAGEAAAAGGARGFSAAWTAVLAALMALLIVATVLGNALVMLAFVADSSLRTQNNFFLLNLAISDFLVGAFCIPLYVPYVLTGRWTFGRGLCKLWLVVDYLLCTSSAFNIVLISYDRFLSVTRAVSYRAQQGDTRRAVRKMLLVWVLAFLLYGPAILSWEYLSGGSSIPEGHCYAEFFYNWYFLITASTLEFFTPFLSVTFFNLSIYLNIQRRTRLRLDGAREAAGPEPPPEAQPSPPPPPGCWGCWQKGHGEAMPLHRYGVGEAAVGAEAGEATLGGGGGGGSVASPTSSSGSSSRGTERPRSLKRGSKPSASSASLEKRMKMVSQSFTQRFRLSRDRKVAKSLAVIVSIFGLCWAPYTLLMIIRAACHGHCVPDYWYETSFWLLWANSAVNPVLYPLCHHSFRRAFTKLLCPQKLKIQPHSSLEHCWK
Protocol: Human Histamine H3 Binding Assay with the Agonist Radioligand [^3H]-N-a-Methylhistamine
The H3 binding assay was used to evaluate the ability of a compound of formula (I) to inhibit [^3H]-N-a-methylhistamine under the conditions as described below: All binding assays were performed in a buffer consisting of 20 mmol/L Hepes, 100 mmol/L NaCl. The pH was set at 7.4 at room temperature. Liquid handling robots were used to prepare, in drug plates, 10 points dose response curves of the compound of formula (I) (3-fold serial dilutions, starting at 10 μmol/L). The assay, performed in 96-well plates, consisted of 100 μL, containing 20 μL of buffer alone for total binding (column #1), 20 μL of imetit (5×) for the non specific binding (column #2), 20 μL of the compound of formula (I) (5×) at varying concentrations (column #3 to #12), plus 20 μL of [3H]-N-a-Methylhistamine (25 000 dpm/well, 1.5 nmol/L) in all wells and finally 60 μL of membranes (20 μg of protein/well) mix is added to start the reaction. Membranes and SPA beads (1000 μg/well) were mixed together and incubated for 30 minutes at room is temperature prior to the start of the assay. […] Plates were then mixed on an orbital mixer, incubated 90 minutes at room temperature, and then read on a Trilux 384™ counter.

hH3 receptors = hH3 receptors (Homo sapiens, UniProt Q9Y5N1); assay: [35S]GTPγS binding assay, antagonist mode (RαMH EC80); format: biochemical; settings: RαMH at EC80 (30 nmol/L for hH3), membranes, SPA; read-out: IC50 equivalent of pIC50, inhibition of H3 agonist R-α-Methyl-Histamine stimulated [35S]GTPγS binding (converted)
Sequence of hH3 receptors (Q9Y5N1 whole entry): as above
Protocol: Guanosine 5′-O-(3-[^35S]thio)triphosphate [GTPgS] Binding Assay
[^35S]GTPγS binding assay was performed in a buffer consisting of 20 mmol/L Hepes, 100 mmol/L NaCl, 10 mmol/L MgCl2, 3 μg/mL saponine and 10 μmol/L GDP. The pH was set at 7.4 at room temperature. Liquid handling robots were used to prepare, in drug plates, 10 points dose response curves of the compound of formula (I) (3-fold serial dilutions, starting at 1 μmol/L for hH3 receptors and 10 μmol/L for rH3 receptors). The assay, performed in 96-well plates, consisted of 120 μL, containing 20 μL of RαMH (EC80, antagonist mode), 20 μL the compound of formula (I) at varying concentrations, 20 μL of the tracer [^35S]GTPγS (60000 dpm/well, 0.2 nmol/L) and finally 60 μL of membranes (10 μg of protein/well for hH3) mix is added to start the reaction. Membranes, SPA beads (125 μg/well) and GDP were mixed together and incubated for 30 minutes at room temperature prior to the start of the assay. Eight wells were used to define baseline and RαMH EC80 (30 nmol/L for hH3 receptors) define the positive control. Plates were then mixed (2 minutes) on an orbital mixer, incubated 60 minutes at room temperature, and then read on a Trilux 384™ counter.

IC50 [1]: 13 nM
IC50 (hH3 receptors): 3 nM
SMILES: NC(=O)c1ccc([C@H]2C[C@@H]2C(=O)N2CCN(C3CCC3)CC2)cc1 [Compound (I), 4-{(1S,2S)-2-[(4-cyclobutylpiperazin-1-yl)carbonyl]-cyclopropyl}-benzamide]
